Each compound was assayed against T1, recombinant human 5-HT6 receptor (Homo sapiens, UniProt P50406) (assay: in vitro radioligand binding, [3H]LSD competition in membranes of HEK293 cells expressing 5-HT6). Settings: [3H]LSD (5 nM) displacement, HEK293 cell membranes, 60 min at 37° C., pH 7.4.
T1 construct: expressed in transfected cells; membranes
T1 sequence (P50406 whole entry): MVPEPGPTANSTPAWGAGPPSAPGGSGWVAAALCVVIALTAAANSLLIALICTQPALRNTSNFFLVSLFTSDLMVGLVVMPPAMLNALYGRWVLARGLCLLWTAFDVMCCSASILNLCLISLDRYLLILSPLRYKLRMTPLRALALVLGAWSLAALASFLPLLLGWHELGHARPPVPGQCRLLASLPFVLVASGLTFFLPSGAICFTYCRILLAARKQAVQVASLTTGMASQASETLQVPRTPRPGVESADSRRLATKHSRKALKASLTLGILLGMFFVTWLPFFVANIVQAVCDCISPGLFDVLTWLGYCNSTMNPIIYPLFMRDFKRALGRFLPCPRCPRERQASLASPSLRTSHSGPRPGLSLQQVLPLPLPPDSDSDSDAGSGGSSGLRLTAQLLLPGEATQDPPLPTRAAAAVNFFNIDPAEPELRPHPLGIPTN
Protocol: This example illustrates in vitro radioligand binding studies of compound of formula (I).
The binding activity of compounds of this invention in vitro was determined as follows. Duplicate determinations of ligand affinity are made by competing for binding of [^3H]LSD in cell membranes derived from HEK293 cells stably expressing recombinant human 5-HT6 receptor. This cell line was prepared by the method described by Monsma et al., Molecular Pharmacology, Vol. 43 pp. 320–327 (1993).
All determinations were made in assay buffer containing 50 mM Tris-HCl, 10 mM MgSO4, 0.5 mM EDTA, 1 mM ascorbic acid, pH 7.4 at 37° C., in a 250 microliter reaction volume. Assay tubes containing [^3H] LSD (5 nM), competing ligand, and membrane were incubated in a shaking water bath for 60 min. at 37° C., filtered onto Packard GF-B plates (pre-soaked with 0.3% PEI) using a Packard 96 well cell harvester and washed 3 times in ice cold 50 mM Tris-HCl. Bound [^3H] LSD was determined as radioactive counts per minute using Packard TopCount.
Displacement of [3H]LSD from the binding sites was quantified by fitting concentration-binding data to a 4-parameter logistic equation:
[formula] where Hill is the Hill slope, [ligand] is the concentration of competing radioligand and IC50 is the concentration of radioligand producing half-maximal specific binding of radioligand. The specific binding window is the difference between the Bmax and the basal parameters.
In the case of `O=S(=O)(c1ccccc1Cl)N1CCOc2c(N3CCNCC3)cccc21` [4-(2-Chloro-benzenesulfonyl)-8-piperazin-1-yl-3,4-dihydro-2H-benzo[1,4]oxazine], the Ki is reported as 2.14 nM.
In the case of `CC1(C)CN(S(=O)(=O)c2ccccc2F)c2cccc(N3CCNCC3)c2O1` [4-(2-Fluoro-benzenesulfonyl)-2,2-dimethyl-8-piperazin-1-yl-3,4-dihydro-2H-benzo[1,4]oxazine], the Ki is reported as 0.209 nM.
Work on `O=S(=O)(c1ccccc1F)N1CCOc2c(N3CCNCC3)cccc21` [4-(2-Fluoro-benzenesulfonyl)-8-piperazin-1-yl-3,4-dihydro-2H-benzo[1,4]oxazine] yielded a Ki of 1.26 nM.
Compound `O=S(=O)(c1cccc(Cl)c1)N1CC2(CCC2)Oc2c(N3CCNCC3)cccc21` [4-(3-Chloro-benzenesulfonyl)-2,2-spiro-cyclobutan-8-piperazin-1-yl-3,4-dihydro-2H-benzo[1,4]oxazine] has a pKi of 9.30.
Compound `Cc1cc(N2CCNCC2)c2c(c1)N(S(=O)(=O)c1cccc(F)c1)CC(C)(C)O2` [4-(3-Fluoro-benzenesulfonyl)-2,2,6-trimethyl-8-piperazinyl-yl-3,4-dihydro-2H-benzo[1,4]oxazine] has a Ki of 0.407 nM.
With `O=S(=O)(c1cccc(F)c1)N1CC2(CCC2)Oc2c(N3CCNCC3)cccc21` [4-(3-Fluoro-benzenesulfonyl)-2,2-spiro-cyclobutan-8-piperazin-1-yl-3,4-dihydro-2H-benzo[1,4]oxazine] the Ki was 1.17 nM.
In the case of `Cc1cc(N2CCNCC2)c2c(c1)N(S(=O)(=O)c1cccc(F)c1)CCO2` [4-(3-Fluoro-benzenesulfonyl)-6-methyl-8-piperazin-1-yl-3,4-dihydro-2H-benzo[1,4]oxazine], the Ki is reported as 2 nM.
Work on `O=S(=O)(c1cccc(F)c1)N1CCOc2c(N3CCNCC3)cccc21` [4-(3-Fluoro-benzenesulfonyl)-8-piperazin-1-yl-3,4-dihydro-2H-benzo[1,4]oxazine] yielded a Ki of 11.2 nM.
In the case of `CC1(C)CN(S(=O)(=O)c2ccccc2F)c2cc(F)cc(N3CCNCC3)c2O1` [6-Fluoro-4-(2-fluoro-benzenesulfonyl)-2,2-dimethyl-8-piperazin-1-yl-3,4-dihydro-2H-benzo[1,4]oxazine], the Ki is reported as 0.209 nM.
`O=S(=O)(c1ccccc1F)N1CCOc2c(N3CCNCC3)cc(F)cc21` [6-Fluoro-4-(2-fluoro-benzenesulfonyl)-8-piperazin-1-yl-3,4-dihydro-2H-benzo[1,4]oxazine] was tested, and the Ki was 0.724 nM.
